Experiments:
Format in all cases: biochemical
zapfl = target: T1, zapfl (Homo sapiens, UniProt P43403); assay: ELISA tyrosine kinase assay, zapfl (ZAP70)
T1 construct: the region encoding the entirety of ZAP70 (amino acids 1-619); made in house; host or cells: SF-9 insect cells (baculovirus, pVL1393)
T1 sequence (P43403 1-619): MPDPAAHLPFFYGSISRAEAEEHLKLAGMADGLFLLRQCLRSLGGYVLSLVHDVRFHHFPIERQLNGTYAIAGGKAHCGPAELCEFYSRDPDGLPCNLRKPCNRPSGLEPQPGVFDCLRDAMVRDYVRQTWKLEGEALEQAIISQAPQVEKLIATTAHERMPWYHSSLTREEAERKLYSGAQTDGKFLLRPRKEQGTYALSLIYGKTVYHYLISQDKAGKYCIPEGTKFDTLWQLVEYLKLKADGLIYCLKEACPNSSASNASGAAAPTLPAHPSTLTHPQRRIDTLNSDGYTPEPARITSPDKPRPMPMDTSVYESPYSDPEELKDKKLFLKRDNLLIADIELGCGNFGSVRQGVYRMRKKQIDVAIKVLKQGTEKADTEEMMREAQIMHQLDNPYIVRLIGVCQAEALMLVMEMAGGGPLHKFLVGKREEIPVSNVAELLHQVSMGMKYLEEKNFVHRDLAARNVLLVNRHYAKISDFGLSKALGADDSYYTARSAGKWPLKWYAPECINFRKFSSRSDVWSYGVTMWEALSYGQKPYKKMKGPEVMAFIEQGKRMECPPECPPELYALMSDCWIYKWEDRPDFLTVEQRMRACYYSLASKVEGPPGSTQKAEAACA
Excerpt: The baculoviral expression vector used was pVL1393. (Pharmingen, Los Angeles, Ca.) The nucleotide sequence encoding amino acids M(H)6 LVPR9S was placed 5' to the region encoding the entirety of ZAP70 (amino acids 1-619). The nucleotide sequence encoding the ZAP70 coding region was generated through PCR using cDNA libraries isolated from Jurkat immortalized T-cells. The histidine residues enabled affinity purification of the protein (vide infra). The LVPR9S bridge constitutes a recognition sequence for proteolytic cleavage by thrombin, enabling removal of the affinity tag from the enzyme. SF-9 insect cells were infected at a multiplicity of infection of 0.5 and harvested 48 hours post infection.
SF-9 cells were lysed in a buffer consisting of 20 mM Tris, pH 8.0, 137 mM NaCl, 10% glycerol, 1% Triton X-100, 1 mM PMSF, 1 µg/ml leupeptin, 10 µg/ml aprotinin and I mM sodium orthovanadate. The soluble lysate was applied to a chelating sepharose HiTrap column (Pharmacia) equilibrated in 50 mM HEPES, pH 7.5, 0.3 M NaCl. Fusion protein was eluted with 250 mM imidazole. The enzyme was stored in buffer containing 50 mM HEPES, pH 7.5, 50 mM NaCl and 5 mM DTT.
The disclosed protocol can be adapted for determining activity with respect to a specific RTK. […]
• 1. […] Shake on plate reader. • Read OD immediately at 450nm

Lck = Lck (Homo sapiens, UniProt P06239); assay: ELISA tyrosine kinase assay, Lck
Experimental: Lck or truncated forms of Lck may be commercially obtained ( e.g. from Upstate Biotechnology Inc. (Saranac Lake, N.Y) and Santa Cruz Biotechnology Inc. (Santa Cruz, Ca.)) or purified from known natural or recombinant sources using conventional methods.
• 1. Plate Preparation: Dilute PGT stock (50mg/ml, frozen) in PBS to a 250µg/ml. Add 125µl per well of Coming modified flat bottom high affinity ELISA plates (Corning #25805-96). Add 125µl PBS to blank wells. Cover with sealing tape and incubate overnight 37°C. Wash 1x with 250µl washing buffer and dry for about 2hrs in 37°C dry incubator. Store coated plates in sealed bag at 4°C until used. • 2. Tyrosine Kinase Reaction: • Prepare inhibitor solutions at a 4x concentration in 20% DMSO in water. • Prepare reaction buffer • Prepare enzyme solution so that desired units are in 50µl, e.g. for KDR make to 1 ng/µl for a total of 50ng per well in the reactions. Store on ice. • Make 4x ATP solution to 20µM from 100mM stock in water. Store on ice • Add 50µl of the enzyme solution per well • Add 25µl 4x inhibitor • Add 25µl 4x ATP for inhibitor assay • Incubate for 10 minutes at room temperature • Stop reaction by adding 50µl 0.05N HCl per well • Wash plate **Final Concentrations for Reaction: • ATP: 5µM • 5% DMSO • 3. […] Shake on plate reader. • Read OD immediately at 450nm […]

human Tie-2 = target: T2, human Tie-2 (Homo sapiens, UniProt Q02763); assay: ELISA tyrosine kinase assay, TIE2
T2 construct: human Tie-2 intra-cellular domain (aa775-1124) was generated through PCR; made in house; host or cells: SF-9 insect cells (baculovirus)
Excerpt: The coding sequence for the human Tie-2 intra-cellular domain (aa775-1124) was generated through PCR using cDNAs isolated from human placenta as a template. A poly-His6 sequence was introduced at the N-terminus and this construct was cloned into transfection vector […] at the Xba 1 and Not 1 site. Recombinant BV was generated through co-transfection using the BaculoGold Transfection reagent (PharMingen). Recombinant BV was plaque purified and verified through Western analysis. For protein production, SF-9 insect cells were grown in SF-900-II medium at 2 x 10^6/ml, and were infected at MOI of 0.5. Purification of the His-tagged kinase used in screening was analogous to that described for KDR.
The disclosed protocol can be adapted for determining activity with respect to a specific RTK. For example, preferred protocols for conducting the ELISA experiments for KDR is provided below. Adaptation of these protocols for determining a compounds activity for other members of the RTK family, as well as non-receptor tyrosine kinases, are well within the abilities of those in the art.
• 1. Plate Preparation: Dilute PGT stock (50mg/ml, frozen) in PBS to a 250µg/ml. Add 125µl per well of Coming modified flat bottom high affinity ELISA plates (Corning #25805-96). Add 125µl PBS to blank wells. Cover with sealing tape and incubate overnight 37°C. […] Shake on plate reader. • Read OD immediately at 450nm

KDR tyrosine kinase = target: T3, KDR tyrosine kinase (Homo sapiens, UniProt P35968); assay: KDR in vitro ELISA; settings: ELISA assay, ATP 5µM
T3 construct: poly-His6 (N); made in house; host or cells: SF-9 insect cells (baculovirus, pVL1393)
Excerpt: The coding sequence for the KDR intra-cellular domain (aa789-1354) was generated through PCR using cDNAs isolated from HUVEC cells. A poly-His6 sequence was introduced at the N-terminus of this protein as well. This fragment was cloned into transfection vector pVL1393 at the Xba 1 and Not 1 site. Recombinant baculovirus (BV) was generated through co-transfection using the BaculoGold Transfection reagent (PharMingen). Recombinant BV was plaque purified and verified through Western analysis. For protein production, SF-9 cells were grown in SF-900-II medium at 2 x 10^6/ml, and were infected at 0.5 plaque forming units per cell (MOI). Cells were harvested at 48 hours post infection.
SF-9 cells expressing (His)6KDR(aa789-1354) were lysed by adding 50 ml of Triton X-100 lysis buffer (20 mM Tris, pH 8.0, 137 mM NaCl, 10% glycerol, 1% Triton X-100, 1mM PMSF, 10µg/ml aprotinin, 1 µg/ml leupeptin) to the cell pellet from 1L of cell culture. The lysate was centrifuged at 19,000 rpm in a Sorval SS-34 rotor for 30 min at 4°C. The cell lysate was applied to a 5 ml NiCl2 chelating sepharose column, equilibrated with 50 mM HEPES, pH7.5, 0.3 M NaCl. KDR was eluted using the same buffer containing 0.25 M imidazole. Column fractions were analyzed using SDS-PAGE and an ELISA assay (below) which measures kinase activity. […]

T3 sequence (P35968 789-1354): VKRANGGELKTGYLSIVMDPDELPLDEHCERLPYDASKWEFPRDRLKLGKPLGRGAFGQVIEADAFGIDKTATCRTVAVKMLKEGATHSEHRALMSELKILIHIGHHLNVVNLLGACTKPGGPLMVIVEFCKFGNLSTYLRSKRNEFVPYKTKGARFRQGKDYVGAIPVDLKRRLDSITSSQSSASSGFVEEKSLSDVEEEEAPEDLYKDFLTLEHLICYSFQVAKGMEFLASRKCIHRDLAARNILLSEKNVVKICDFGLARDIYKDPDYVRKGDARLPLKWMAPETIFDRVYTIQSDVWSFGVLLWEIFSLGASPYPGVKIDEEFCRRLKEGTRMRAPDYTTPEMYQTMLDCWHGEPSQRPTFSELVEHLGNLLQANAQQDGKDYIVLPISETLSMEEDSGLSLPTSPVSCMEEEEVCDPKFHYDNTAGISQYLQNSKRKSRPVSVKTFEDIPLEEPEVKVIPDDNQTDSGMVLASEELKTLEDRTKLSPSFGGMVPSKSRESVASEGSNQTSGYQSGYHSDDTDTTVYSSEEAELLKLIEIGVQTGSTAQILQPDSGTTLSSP
T2 sequence (Q02763 775-1124): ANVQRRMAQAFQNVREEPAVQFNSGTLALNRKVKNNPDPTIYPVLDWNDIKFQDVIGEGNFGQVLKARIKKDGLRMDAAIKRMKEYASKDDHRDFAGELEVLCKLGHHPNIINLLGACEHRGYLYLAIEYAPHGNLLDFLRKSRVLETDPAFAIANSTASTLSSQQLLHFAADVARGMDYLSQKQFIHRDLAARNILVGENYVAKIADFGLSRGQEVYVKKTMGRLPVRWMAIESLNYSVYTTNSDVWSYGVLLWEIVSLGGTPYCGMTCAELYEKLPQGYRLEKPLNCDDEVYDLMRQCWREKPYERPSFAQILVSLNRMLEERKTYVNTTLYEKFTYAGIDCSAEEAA
Lck, sequence (P06239 whole entry, species assumed, the tested form may be a part): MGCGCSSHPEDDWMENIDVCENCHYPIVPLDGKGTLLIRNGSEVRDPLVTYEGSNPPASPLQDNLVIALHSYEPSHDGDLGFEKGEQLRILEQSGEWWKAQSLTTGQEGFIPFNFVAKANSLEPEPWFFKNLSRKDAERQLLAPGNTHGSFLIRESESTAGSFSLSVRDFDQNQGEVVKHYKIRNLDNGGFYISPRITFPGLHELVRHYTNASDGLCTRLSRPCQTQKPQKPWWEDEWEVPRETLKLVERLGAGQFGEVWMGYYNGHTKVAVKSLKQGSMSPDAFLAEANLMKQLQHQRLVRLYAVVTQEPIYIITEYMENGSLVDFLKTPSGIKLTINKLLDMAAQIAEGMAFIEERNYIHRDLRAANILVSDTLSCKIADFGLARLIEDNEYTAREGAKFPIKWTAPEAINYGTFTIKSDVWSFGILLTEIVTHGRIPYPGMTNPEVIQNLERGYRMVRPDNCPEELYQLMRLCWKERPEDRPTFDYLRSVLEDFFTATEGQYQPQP

- IC50 (zapfl): 30.3 µM
- IC50 (Lck): > 30 µM
- IC50 (human Tie-2): > 30 µM
- IC50 (KDR tyrosine kinase): 13.4 µM
Structure (SMILES): c1ccc2c(c1)SCc1c(-c3ccncc3)n[nH]c1-2 [Compound III]

— EP1073435B1, “SUBSTITUTED TRICYCLIC PYRAZOLE DERIVATIVES WITH PROTEIN KINASE ACTIVITY” (Abbott GmbH & Co. KG, priority 1998, dated 1999)
